Assay results from patent US20240216401A1, “COMBINATION THERAPY BY USING AKR1C3-ACTIVATED COMPOUND WITH IMMUNE CHECKPOINT INHIBITOR” (OBI Pharma, Inc., priority 2021, published 2024).
Where “and” joins values, the source holds several entries; their conditions need not be identical. Equal entries are not always repeated.

Columns and labels:
HepG2 tumor = experiment: Example 2: tumor volume, tumor weight and TGI in HepG2 tumor bearing humanized mice; format: in vivo, Mus musculus; details: G3 OBI-3424 (1 mg/kg)
Procedure: 1. Species: Mus musculus • Strain: Advanced immunodeficiency mouse. • (NOD.CgPrkdc^scid Il2rg) • Source: Trineo Biotechnology Co., LTD.
Each group contains six mice. The human hepatocellular carcinoma cell line HepG2 were subcutaneously inoculated to the advanced immune-deficiency mice. Total of 42 mice were included in this study.
2.2. […] The subcutaneous injection volume was […].
3.1. […] The injection was performed using insulin syringe with the dosage of 0.3 mg/kg or 1 mg/kg and the injection volume was 5 mL/kg. […] The reference item was administered for G1. The procedure followed the standards of sample administration. The starting day of test item administration was denoted as the first experimental day (DO).
3.2. […] The injection was performed using insulin syringe with the dosage of 20 mg/kg and injection volume of 10 mL/kg. […] The procedure followed the standards of sample administration.
The measurement was performed from the next day of the inoculation. The tumor volumes were measured and recorded twice a week (Mon., Thur.). Tumor volume was calculated by ellipsoid equation according to the records ((major axis×minor axis×minor axis)×(π/6)).
Tumor volumes were used to calculate tumor growth inhibition (TGI) rates according to the following formula: TGI (%)=[1−(Ti−T0)/(Ci−C0)]×100, where Ti and Ci indicate the mean tumor volume in the treatment groups and vehicle group at the end of the experiment (Day 30). Whereas, T0 and C0 indicate the mean tumor volumes in the treatment group and vehicle group at the beginning of the experiment (Day 0).
(§1) Mice were sacrificed by CO2 euthanasia at the end of the study duration, and the connective tissue around tumor was resected. The tumor samples were then weighed and cut equally into three sections if the tumor weight over 400 mg. The tumor tissue was prepared for the isolation of tumor-infiltrating lymphocytes (TILs). The rest of one section was fixed in 10% formaldehyde and embedded in paraffin; the other was stored at a temperature below −70° C.

[1] = test system: T helper (TH) cells (CD45^+CD4^+ T cells) in tumor-infiltrating lymphocytes; experiment: Example 2: flow cytometry, percentage of TH cells in TILs; format: in vivo, Mus musculus
Procedure: as §1
The tumor samples were dissected into smaller fragments using scalpels and then digested with a cocktail of collagenase, DNase I, and Hyaluronidase (Collagenase #C5138, DNase I #D5025, Hyaluronidase #H6254, SigmaAldrich) for at least 2 hours.
Cells were stained with the fluorescently conjugated surface antibodies and incubated for 30 minutes at 4° C., and then resuspended in staining buffer for flow cytometric analysis. Flow cytometry was done using a Navios EX Flow Cytometer (Beckman Coulter). Data were analyzed using the Kaluza Analysis Software (Beckman Coulter).

[2] = D30, individual animals, 1 mg/kg
[3] = G2: OBI-3424 (0.3 mg/kg), group Mean
[4] = G2: OBI-3424 (0.3 mg/kg), individual animals, 0.3 mg/kg
[5] = G3: OBI-3424 (1 mg/kg), group Mean
[6] = G3: OBI-3424 (1 mg/kg), individual animals, 1 mg/kg

C[C@H](OP(=O)(N1CC1)N1CC1)c1ccc([N+](=O)[O-])c(Oc2cccc(C(=O)N(C)C)c2)c1 [OBI-3424, (S)-1-(3-(3-N,N-dimethylaminocarbonyl)phenoxyl-4-mtrophenyl)-1-ethyl-N,N′-bis(ethylene)phosphoramidate] was tested, and the Tumor volume (HepG2 tumor; D27, individual animals, 1 mg/kg) was 246.4 mm^3 and 426.0 mm^3 and 295.9 mm^3, the Tumor weight (HepG2 tumor; D30, group Mean) was 84.40 mg and the Tumor volume (HepG2 tumor; [2]) was 185.2 mm^3 and 295.5 mm^3 and 215.0 mm^3. The Tumor weight (HepG2 tumor; [2]) was 62.40 mg and 101.90 mg and 105.20 mg and 90.30 mg and 69.80 mg and 76.80 mg, the “TH cells (CD45^+CD4^+ T cells) in TILs” value ([1]; Example 2, mean±SEM, OBI-3424 1 mg/kg, alone (G3) or with anti-hPD-1 (G6)) was 25.05±2.08% and the “CD25^+ TH cells (CD45^+CD4^+ CD25^+) Total %” value [1, 3] was 2.46%. For the same molecule, the “CD25^+ TH cells (CD45^+CD4^+CD25^+) Cell count (×10^5)” value (“CD25^+ TH cells … (×10^5)” for short) [1, 3] was 4.93 ×10^5, the “CD25^+ TH cells (CD45^+CD4^+CD25^+) TH Gated %” value [1, 3] was 18.22% and the “CD69^+ TH cells (CD45^+CD4^+CD69^+) Cell count (×10^5)” value (from here on “CD69^+ TH cells … (×10^5)”) [1, 3] was 13.89 ×10^5. For the same molecule, the “CD69^+ TH cells (CD45^+CD4^+CD69^+) TH Gated %” value [1, 3] was 60.13%, the “CD69^+ TH cells (CD45^+CD4^+CD69^+) Total %” value [1, 3] was 8.46% and the “Foxp3^+ Treg cells (CD45^+CD4^+CD25^+Foxp3^+) Cell count (×10^5)” value (from here on “Foxp3^+ Treg cells … (×10^5)”) [1, 3] was 0.24 ×10^5. For the same molecule, the “Foxp3^+ Treg cells (CD45^+CD4^+CD25^+Foxp3^+) TH Gated %” value [1, 3] was 5.27%, the “Foxp3^+ Treg cells (CD45^+CD4^+CD25^+Foxp3^+) Total %” value [1, 3] was 0.12% and the “PD-1^+ TH cells (CD45^+CD4^+ PD-1^+) Cell count (×10^5)” value (“PD-1^+ TH cells … (×10^5)” below) [1, 3] was 20.36 ×10^5. The “PD-1^+ TH cells (CD45^+CD4^+ PD-1^+) TH Gated %” value [1, 3] was 93.96%, the “PD-1^+ TH cells (CD45^+CD4^+ PD-1^+) Total %” value [1, 3] was 12.11% and the “TH cells (CD45^+CD4^+) CD45^+ Gated %” value [1, 3] was 33.51%. For the same molecule, the “TH cells (CD45^+CD4^+) Cell count (×10^5)” value [1, 3] was 21.50 ×10^5, the “TH cells (CD45^+CD4^+) Total %” value [1, 3] was 12.88% and the “CD25^+ TH cells (CD45^+CD4^+ CD25^+) Total %” value [1, 4] was 1.65% and 2.12% and 4.23% and 2.84%. The “CD25^+ TH cells … (×10^5)” value [1, 4] was 4.34 ×10^5 and 3.39 ×10^5 and 8.91 ×10^5 and 0.45 ×10^5 and 10.43 ×10^5 and 2.06 ×10^5, the “CD25^+ TH cells (CD45^+CD4^+CD25^+) TH Gated %” value [1, 4] was 18.38% and 17.49% and 18.21% and 10.15% and 30.45% and 14.61% and the “CD69^+ TH cells … (×10^5)” value [1, 4] was 14.86 ×10^5 and 13.89 ×10^5 and 28.08 ×10^5 and 3.35 ×10^5 and 16.93 ×10^5 and 6.24 ×10^5. For the same molecule, the “CD69^+ TH cells (CD45^+CD4^+CD69^+) TH Gated %” value [1, 4] was 63.07% and 71.55% and 57.32% and 49.45% and 44.32%, the “CD69^+ TH cells (CD45^+CD4^+CD69^+) Total %” value [1, 4] was 7.64% and 6.79% and 5.20% and 15.65% and 6.87% and 8.60% and the “Foxp3^+ Treg cells … (×10^5)” value [1, 4] was 0.21 ×10^5 and 0.27 ×10^5 and 0.43 ×10^5 and 0.03 ×10^5 and 0.39 ×10^5 and 0.08 ×10^5. The “Foxp3^+ Treg cells (CD45^+CD4^+CD25^+Foxp3^+) TH Gated %” value [1, 4] was 5.03% and 7.95% and 5.08% and 6.05% and 3.69% and 3.81%, the “Foxp3^+ Treg cells (CD45^+CD4^+CD25^+Foxp3^+) Total %” value [1, 4] was 0.11% (2×) and 0.13% (2×) and 0.08% and 0.16% and the “PD-1^+ TH cells … (×10^5)” value [1, 4] was 21.12 ×10^5 and 16.11 ×10^5 and 38.56 ×10^5 and 4.30 ×10^5 and 32.19 ×10^5 and 9.90 ×10^5. The “PD-1^+ TH cells (CD45^+CD4^+ PD-1^+) TH Gated %” value [1, 4] was 98.48% and 81.16% and 94.89% and 90.86% and 99.60% and 98.76%, the “PD-1^+ TH cells (CD45^+CD4^+ PD-1^+) Total %” value [1, 4] was 10.86% and 7.88% and 7.14% and 20.09% and 13.06% and 13.65% and the “TH cells (CD45^+CD4^+) CD45^+ Gated %” value [1, 4] was 59.01% and 26.17% and 17.42% and 32.52% and 29.44% and 36.50%. The “TH cells (CD45^+CD4^+) Cell count (×10^5)” value [1, 4] was 21.45 ×10^5 and 19.84 ×10^5 and 40.61 ×10^5 and 4.73 ×10^5 and 32.34 ×10^5 and 10.02 ×10^5, the “TH cells (CD45^+CD4^+) Total %” value [1, 4] was 11.03% and 9.70% and 7.52% and 22.11% and 13.12% and 13.82% and the “CD25^+ TH cells (CD45^+CD4^+ CD25^+) Total %” value [1, 5] was 3.32%. For the same molecule, the “CD25^+ TH cells … (×10^5)” value [1, 5] was 2.83 ×10^5, the “CD25^+ TH cells (CD45^+CD4^+CD25^+) TH Gated %” value [1, 5] was 13.39% and the “CD69^+ TH cells … (×10^5)” value [1, 5] was 12.24 ×10^5. For the same molecule, the “CD69^+ TH cells (CD45^+CD4^+CD69^+) TH Gated %” value [1, 5] was 61.30%, the “CD69^+ TH cells (CD45^+CD4^+CD69^+) Total %” value [1, 5] was 15.55% and the “Foxp3^+ Treg cells … (×10^5)” value [1, 5] was 0.07 ×10^5. The “Foxp3^+ Treg cells (CD45^+CD4^+CD25^+Foxp3^+) TH Gated %” value [1, 5] was 3.04%, the “Foxp3^+ Treg cells (CD45^+CD4^+CD25^+Foxp3^+) Total %” value [1, 5] was 0.09% and the “PD-1^+ TH cells … (×10^5)” value [1, 5] was 19.54 ×10^5. For the same molecule, the “PD-1^+ TH cells (CD45^+CD4^+ PD-1^+) TH Gated %” value [1, 5] was 97.01%, the “PD-1^+ TH cells (CD45^+CD4^+ PD-1^+) Total %” value [1, 5] was 24.35% and the “TH cells (CD45^+CD4^+) CD45^+ Gated %” value [1, 5] was 41.85%. The “TH cells (CD45^+CD4^+) Cell count (×10^5)” value [1, 5] was 20.13 ×10^5, the “TH cells (CD45^+CD4^+) Total %” value [1, 5] was 25.05% and the “CD25^+ TH cells (CD45^+CD4^+ CD25^+) Total %” value [1, 6] was 1.46% and 2.88% and 2.69% and 5.06% and 4.55% and 3.26%. The “CD25^+ TH cells … (×10^5)” value [1, 6] was 0.42 ×10^5 and 3.63 ×10^5 and 1.90 ×10^5 and 5.00 ×10^5 and 3.39 ×10^5 and 2.64 ×10^5, the “CD25^+ TH cells (CD45^+CD4^+CD25^+) TH Gated %” value [1, 6] was 5.51% and 11.47% and 14.05% and 20.81% and 18.53% and 9.97% and the “CD69^+ TH cells … (×10^5)” value [1, 6] was 4.74 ×10^5 and 19.21 ×10^5 and 9.19 ×10^5 and 10.91 ×10^5 and 12.59 ×10^5 and 16.82 ×10^5. The “CD69^+ TH cells (CD45^+CD4^+CD69^+) TH Gated %” value [1, 6] was 61.50% and 60.62% and 67.91% and 45.46% and 68.87% and 63.43%, the “CD69^+ TH cells (CD45^+CD4^+CD69^+) Total %” value [1, 6] was 16.35% and 15.22% and 13.01% and 11.04% and 16.92% and 20.76% and the “Foxp3^+ Treg cells … (×10^5)” value [1, 6] was 0.02 ×10^5 and 0.08 ×10^5 and 0.07 ×10^5 and 0.12 ×10^5 and 0.04 ×10^5 and 0.11 ×10^5. The “Foxp3^+ Treg cells (CD45^+CD4^+CD25^+Foxp3^+) TH Gated %” value [1, 6] was 4.64% and 2.22% and 3.57% and 2.45% and 1.41% and 3.92%, the “Foxp3^+ Treg cells (CD45^+CD4^+CD25^+Foxp3^+) Total %” value [1, 6] was 0.07% and 0.06% (2×) and 0.10% and 0.12% and 0.13% and the “PD-1^+ TH cells … (×10^5)” value [1, 6] was 7.02 ×10^5 and 29.44 ×10^5 and 11.76 ×10^5 and 23.76 ×10^5 and 18.24 ×10^5 and 27.01 ×10^5. For the same molecule, the “PD-1^+ TH cells (CD45^+CD4^+ PD-1^+) TH Gated %” value [1, 6] was 96.86% and 94.38% and 95.57% and 98.57% and 97.07% and 99.62%, the “PD-1^+ TH cells (CD45^+CD4^+ PD-1^+) Total %” value [1, 6] was 24.22% and 23.33% and 16.66% and 24.05% and 24.52% and 33.34% and the “TH cells (CD45^+CD4^+) CD45^+ Gated %” value [1, 6] was 37.76% and 41.33% and 35.50% and 40.55% and 38.34% and 57.62%. The “TH cells (CD45^+CD4^+) Cell count (×10^5)” value [1, 6] was 7.25 ×10^5 and 31.20 ×10^5 and 12.31 ×10^5 and 24.11 ×10^5 and 18.79 ×10^5 and 27.11 ×10^5 and the “TH cells (CD45^+CD4^+) Total %” value [1, 6] was 25.00% and 24.72% and 17.44% and 24.40% and 25.26% and 33.47%.
